Data from patent US8278268B2, “Combination therapy comprising glucose reabsorption inhibitors and PPAR modulators” (Ortho-McNeil Pharmaceutical, Inc., priority 2001, dated 2012).
Each block holds one compound with its values, some of them ahead of it.

Columns and labels:
Format in all cases: in vivo
[1] = tested on: female db/db mice; experiment: Example 1: 11 day oral dosing of rosiglitazone +/− T-1095 in db/db mice; conditions: for Glucose / Insulin / TG: mean; for Body Weight Change / Liver Weight: −T1095, mean
Method: (§1) Mice (n=8 animals/group) received the test compounds or vehicle by oral gavage in a volume of 10 ml/kg of body weight. Body weight was recorded on day 1, prior to dosing, and days 4, 8 and 11. Eighteen hours after the final dose, mice were weighed and anesthetized with CO2/O2 (70:30). Mice were then bled by retro-orbital sinus puncture into 2 mL heparinized polypropylene tubes on ice.
Plasma samples were then assayed for glucose, insulin, and triglycerides using Trinder reagent (Sigma Diagnostics), Elisa (Alpco) and GPO-Trinder (Sigma Diagnostics), respectively.
(§2) Livers were excised, weighed and frozen. […] Heart weight can be measured in an analogous manner.

[2] = tested on: female db/db mice; experiment: Example 2: 11 day oral dosing of T-1095 +/− rosiglitazone in db/db mice; conditions: Rosi 10 mpk, mean
Method: as §1, with “ice. Plasma samples were then assayed for glucose, insulin, and triglycerides using Trinder reagent (Sigma Diagnostics), Elisa (Alpco) and GPO-Trinder (Sigma Diagnostics), respectively. Livers and hearts were excised, weighed and frozen.” for “ice.”
as §2

[3] = tested on: db/db mice; experiment: Example 4: plasma glucose AUC following an oral glucose challenge
Method: (§3) To examine the effect of T-1095 in combination with a PPARγ agonist, male db/db mice (6 weeks of age/Jackson Labs, […]), a PPARγ agonist such as MCC-555 (3 mg/kg-30 mg/kg), T-1095 (3-100 mg/kg), or MCC-555 plus T-1095. Mice (n=8 animals/group) received the test compounds or vehicle by oral gavage in a volume of 10 ml/kg of body weight. Body weight was recorded on day 1, prior to dosing, and twice a week for the duration of the study. One hour after the final dose, mice were weighed and anesthetized with CO2/O2 (70:30). Mice were then bled by retro-orbital sinus puncture into 2 mL heparinized polypropylene tubes on ice. Mice were then fasted overnight and bled by tail-clip prior to receiving a glucose challenge (2 g/kg p.o). Blood was collected at 30, 60.120, and 180 minutes after the challenge. Animals were then sacrificed and epididymal fat pads, livers, and hearts were excised, weighed and frozen for histological examination. Plasma samples were then assayed for glucose, HbA1c, insulin, and triglycerides.

[4] = tested on: db/db mice; experiment: Example 4: 32 day oral dosing of T-1095 +/− MCC-555 in db/db mice; conditions: for % HbA1C +/− SEM / Body Weight Change (g) ± SEM / Glucose / Insulin / Liver Weight (g) ± SEM / TG / Heart Weight (g) ± SEM: 32 day oral dosing
Method: as §3
Livers and hearts were excised, weighed and frozen.

Liver Weight ([1]; Rosi 0.1 mpk): 2.31 g | Liver Weight ([1]; Rosi 1 mpk): 2.32 g | Liver Weight ([1]; Rosi 10 mpk): 2.36 g | Liver Weight [2]: 2.15 g
Structure (SMILES): CN(CCOc1ccc(CC2SC(=O)NC2=O)cc1)c1ccccn1 (centres unmarked) [Rosi, 5-((4-(2-(methyl-2-pyridinylamino)ethoxy)phenyl)methyl)-2,4-thiazolidinedione]
Glucose ([1]; 0.1 mpk Rosi): ***388.13 mg/dL | Insulin ([1]; 0.1 mpk Rosi): 65.75 ng/mL | TG ([1]; 0.1 mpk Rosi): ***188.38 mg/dL | Glucose ([1]; 1 mpk Rosi): ***246.71 mg/dL | Insulin ([1]; 1 mpk Rosi): ***25.43 ng/ml | TG ([1]; 1 mpk Rosi): ***199.43 mg/dL | Glucose ([1]; 10 mpk Rosi): ***321.63 mg/dL | Insulin ([1]; 10 mpk Rosi): ***31.63 ng/ml | TG ([1]; 10 mpk Rosi): ***136.25 mg/dL | Body Weight Change ([1]; Rosi 0.1 mpk): 4.34 g | Body Weight Change ([1]; Rosi 1 mpk): 2.60 g | Body Weight Change ([1]; Rosi 10 mpk): 4.76 g | Body Weight Change [2]: 3.9 g | Glucose [2]: **244 mg/dL | Insulin [2]: *7.4 ng/ml | TG [2]: *192 mg/dL

Liver Weight (g) ± SEM ([4]; 3 mpk MCC-555): 2.36 ± 0.22 g | Heart Weight (g) ± SEM ([4]; 10 mpk MCC-555): 0.13 ± 0.01 g | Liver Weight (g) ± SEM ([4]; 10 mpk MCC-555): 1.91 ± 0.17 g | Heart Weight (g) ± SEM ([4]; 30 mpk MCC-555): 0.12 ± 0.01 g | Liver Weight (g) ± SEM ([4]; 30 mpk MCC-555): 1.68 ± 0.1 g
Structure (SMILES): O=C1NC(=O)C(Cc2ccc3cc(OCc4ccccc4F)ccc3c2)S1 (centres unmarked) [MCC-555, 5-((6-((2-fluorophenyl)methoxy)-2-naphthalenyl)methyl)-2,4-thiazolidinedione, reference compound]
AUC glucose % of Vehicle ± SEM ([3]; 3 mpk MCC-555, 32 day oral dosing): 74.11 ± 7.38 % of Vehicle | AUC glucose % of Vehicle ± SEM ([3]; 10 mpk MCC-555, 32 day oral dosing): 71.05 ± 8.37 % of Vehicle | AUC glucose % of Vehicle ± SEM ([3]; 30 mpk MCC-555, 32 day oral dosing): 48.03 ± 4.37 % of Vehicle | % HbA1C +/− SEM ([4]; 3 mpk MCC-555): 4.50 ± 0.17 % | Body Weight Change (g) ± SEM ([4]; 3 mpk MCC-555): 9.14 ± 1.5 g | Glucose ([4]; 3 mpk MCC-555): 201.3 ± 24 mg/dL | Insulin ([4]; 3 mpk MCC-555): 31.7 ± 4.7 ng/dL | TG ([4]; 3 mpk MCC-555): 90.20 ± 4.5 mg/dL | % HbA1C +/− SEM ([4]; 10 mpk MCC-555): 4.10 ± 0.15 % | Body Weight Change (g) ± SEM ([4]; 10 mpk MCC-555): 9.53 ± 0.9 g | Glucose ([4]; 10 mpk MCC-555): 155.1 ± 22 mg/dL | Insulin ([4]; 10 mpk MCC-555): 11.9 ± 1.4 ng/dL | TG ([4]; 10 mpk MCC-555): 73.90 ± 5.4 mg/dL | % HbA1C +/− SEM ([4]; 30 mpk MCC-555): 4.11 ± 0.14 % | Body Weight Change (g) ± SEM ([4]; 30 mpk MCC-555): 8.0 ± 0.7 g | Glucose ([4]; 30 mpk MCC-555): 111.5 ± 8.0 mg/dL | Insulin ([4]; 30 mpk MCC-555): 5.40 ± 0.4 ng/dL | TG ([4]; 30 mpk MCC-555): 55.30 ± 4.7 mg/dL | change in heart weight ([4]; MCC-555 alone, in this study): did not produce a significant change in heart weight
